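Five concentrations, 48 hours, 96-well plates. The concentration for 50% growth inhibition is given as GI50. At the TGI there is no net growth.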
Assays:
Assay in all cases: NCI tumour cell line growth inhibition, 48 h
SK-OV-3 ovarian = test system: SK-OV-3 ovarian
SF-295 CNS = test system: SF-295 CNS
HL-60(TB) leukemia = test system: HL-60(TB) leukemia
HCT-116 colon = test system: HCT-116 colon
HOP-92 NSCLC = test system: HOP-92 NSCLC
NCI-H460 lung = test system: NCI-H460 lung
PC-3 prostate = test system: PC-3 prostate
HCT-15 colon = test system: HCT-15 colon
HS 578T breast = test system: HS 578T breast
KM12 colon = test system: KM12 colon
RPMI-8226 leukemia = test system: RPMI-8226 leukemia
M14 melanoma = test system: M14 melanoma
LOX IMVI melanoma = test system: LOX IMVI melanoma
A498 renal = test system: A498 renal
BT-549 breast = test system: BT-549 breast
MDA-MB-231 breast = test system: MDA-MB-231 breast
SNB-19 CNS = test system: SNB-19 CNS
OVCAR-5 ovarian = test system: OVCAR-5 ovarian
SF-539 CNS = test system: SF-539 CNS
ACHN renal = test system: ACHN renal
SK-MEL-28 melanoma = test system: SK-MEL-28 melanoma
SK-MEL-5 melanoma = test system: SK-MEL-5 melanoma
MDA-MB-435 = test system: MDA-MB-435
SF-268 CNS = test system: SF-268 CNS
SK-MEL-2 melanoma = test system: SK-MEL-2 melanoma
IGROV1 ovarian = test system: IGROV1 ovarian
OVCAR-4 ovarian = test system: OVCAR-4 ovarian
SN12C renal = test system: SN12C renal
NCI-H522 lung = test system: NCI-H522 lung
786-0 renal = test system: 786-0 renal
EKVX NSCLC = test system: EKVX NSCLC
CAKI-1 renal = test system: CAKI-1 renal
OVCAR-3 ovarian = test system: OVCAR-3 ovarian
OVCAR-8 ovarian = test system: OVCAR-8 ovarian
SW-620 colon = test system: SW-620 colon
A549 NSCLC = test system: A549 NSCLC
MOLT-4 leukemia = test system: MOLT-4 leukemia
UO-31 renal = test system: UO-31 renal
COLO 205 colon = test system: COLO 205 colon
K-562 leukemia = test system: K-562 leukemia
NCI-H23 lung = test system: NCI-H23 lung
CCRF-CEM leukemia = test system: CCRF-CEM leukemia
SR leukemia = test system: SR leukemia
MCF7 breast = test system: MCF7 breast
RXF 393 renal = test system: RXF 393 renal
NCI/ADR-RES ovarian = test system: NCI/ADR-RES ovarian
UACC-62 melanoma = test system: UACC-62 melanoma
U251 CNS = test system: U251 CNS
TK-10 renal = test system: TK-10 renal
UACC-257 melanoma = test system: UACC-257 melanoma
HOP-62 NSCLC = test system: HOP-62 NSCLC
DU-145 prostate = test system: DU-145 prostate
NCI-H226 lung = test system: NCI-H226 lung

Q: What does the source list for `Cn1nc(-c2cccs2)cc1/N=C(\N)C(C)(C#N)Cc1ccccc1` (stereo unspecified)?
A: GI50 (SK-OV-3 ovarian): 44.8 µM; TGI (SK-OV-3 ovarian): > 100 µM; GI50 (SF-295 CNS): 26.9 µM; TGI (SF-295 CNS): 75.7 µM; GI50 (HL-60(TB) leukemia): 26.5 µM; TGI (HL-60(TB) leukemia): 59.5 µM; GI50 (HCT-116 colon): 27.2 µM; TGI (HCT-116 colon): > 100 µM; GI50 (HOP-92 NSCLC): 32.7 µM; TGI (HOP-92 NSCLC): > 100 µM; GI50 (NCI-H460 lung): 26.7 µM; TGI (NCI-H460 lung): 80.7 µM; GI50 (PC-3 prostate): 32.4 µM; TGI (PC-3 prostate): 90.4 µM; GI50 (HCT-15 colon): 29.3 µM; TGI (HCT-15 colon): > 100 µM; GI50 (HS 578T breast): 18.3 µM; TGI (HS 578T breast): 58.5 µM; GI50 (KM12 colon): 29 µM; TGI (KM12 colon): 93.7 µM; GI50 (RPMI-8226 leukemia): 15.5 µM; TGI (RPMI-8226 leukemia): 46.5 µM; GI50 (M14 melanoma): 29.9 µM; TGI (M14 melanoma): > 100 µM; GI50 (LOX IMVI melanoma): 23.3 µM; TGI (LOX IMVI melanoma): 53.3 µM; GI50 (A498 renal): 32 µM; TGI (A498 renal): 64.7 µM; GI50 (BT-549 breast): 35.4 µM; TGI (BT-549 breast): > 100 µM; GI50 (MDA-MB-231 breast): 16.3 µM; TGI (MDA-MB-231 breast): 39.4 µM; GI50 (SNB-19 CNS): 62.7 µM; TGI (SNB-19 CNS): > 100 µM; GI50 (OVCAR-5 ovarian): 31.6 µM; TGI (OVCAR-5 ovarian): 75.8 µM; GI50 (SF-539 CNS): 37.6 µM; TGI (SF-539 CNS): 77.1 µM; GI50 (ACHN renal): 20.7 µM; TGI (ACHN renal): 48.4 µM; GI50 (SK-MEL-28 melanoma): 70.3 µM; TGI (SK-MEL-28 melanoma): > 100 µM; GI50 (SK-MEL-5 melanoma): 18.4 µM; TGI (SK-MEL-5 melanoma): 37.4 µM; GI50 (MDA-MB-435): 25.7 µM; TGI (MDA-MB-435): 62.2 µM; GI50 (SF-268 CNS): 36.9 µM; TGI (SF-268 CNS): > 100 µM; GI50 (SK-MEL-2 melanoma): 63.7 µM; TGI (SK-MEL-2 melanoma): > 100 µM; GI50 (IGROV1 ovarian): 54.2 µM; TGI (IGROV1 ovarian): > 100 µM; GI50 (OVCAR-4 ovarian): 28.1 µM; TGI (OVCAR-4 ovarian): > 100 µM; GI50 (SN12C renal): 24.8 µM; TGI (SN12C renal): 79.3 µM; GI50 (NCI-H522 lung): 56.1 µM; TGI (NCI-H522 lung): > 100 µM; GI50 (786-0 renal): 39.7 µM; TGI (786-0 renal): > 100 µM; GI50 (EKVX NSCLC): 47.4 µM; TGI (EKVX NSCLC): > 100 µM; GI50 (CAKI-1 renal): 22.9 µM; TGI (CAKI-1 renal): 60.8 µM; GI50 (OVCAR-3 ovarian): 21.9 µM; TGI (OVCAR-3 ovarian): 58.3 µM; GI50 (OVCAR-8 ovarian): 37.1 µM; TGI (OVCAR-8 ovarian): 98.7 µM; GI50 (SW-620 colon): 34.2 µM; TGI (SW-620 colon): > 100 µM; GI50 (A549 NSCLC): 23.4 µM; TGI (A549 NSCLC): 57.1 µM; GI50 (MOLT-4 leukemia): 67.1 µM; TGI (MOLT-4 leukemia): > 100 µM; GI50 (UO-31 renal): 44.1 µM; TGI (UO-31 renal): > 100 µM; GI50 (COLO 205 colon): 39.9 µM; TGI (COLO 205 colon): > 100 µM; GI50 (K-562 leukemia): 33.3 µM; TGI (K-562 leukemia): > 100 µM; GI50 (NCI-H23 lung): 27.7 µM; TGI (NCI-H23 lung): 53.9 µM; GI50 (CCRF-CEM leukemia): 46.4 µM; TGI (CCRF-CEM leukemia): > 100 µM; GI50 (SR leukemia): 45.2 µM; TGI (SR leukemia): > 100 µM; GI50 (MCF7 breast): 31.5 µM; TGI (MCF7 breast): > 100 µM; GI50 (RXF 393 renal): 49.3 µM; TGI (RXF 393 renal): 90.3 µM; GI50 (NCI/ADR-RES ovarian): 23.7 µM; TGI (NCI/ADR-RES ovarian): 49.5 µM; GI50 (UACC-62 melanoma): 22.8 µM; TGI (UACC-62 melanoma): 49.6 µM; GI50 (U251 CNS): 21.9 µM; TGI (U251 CNS): 52.7 µM; GI50 (TK-10 renal): 27.3 µM; TGI (TK-10 renal): 91.6 µM; GI50 (UACC-257 melanoma): 32 µM; TGI (UACC-257 melanoma): 71.8 µM; GI50 (HOP-62 NSCLC): 38.7 µM; TGI (HOP-62 NSCLC): > 100 µM; GI50 (DU-145 prostate): 47.6 µM; TGI (DU-145 prostate): > 100 µM; GI50 (NCI-H226 lung): 20.4 µM; TGI (NCI-H226 lung): 58.1 µM
